US8883763B2 (Universite Joseph Fourier, priority 2010, dated 2014)

Tests used:
HMEC cells = experiment: Proliferation of HMEC cells (GI50); assay type: cell-based; settings: Homo sapiens, 120 h, 50 μM to 1 nM for 5 days
Summary of the method: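 Cells seeded at 1,000/well (10% confluence) and exposed 5 days (120 h) to compound from 1 nM up to 50–100 μM. Live cells counted by Hoechst 33342 staining under fluorescence microscopy; GI50 is concentration halving proliferation versus control, mean of two triplicate experiments.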

PP1α (PP1CA) = target: T1, PP1α (PP1CA) (Oryctolagus cuniculus, UniProt P62139); experiment: Protein phosphatase test (PP1 activity, DiFMUP fluorescent substrate); assay type: biochemical; settings: PP1CA at 80 mU, fluorescent substrate (50 μM), molecules from 50 μM to 50 nM; read-out: PP1 Inhibition IC50
T1 construct: purchased New England Biolabs P0754
Summary of the method: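 PP1α (30 or 80 mU) in 100 mM Tris-HCl pH 7.5, 4 mM DTT, 0.2 mM EDTA, 0.5 mM MnCl2 was preincubated 15 min with compound (50 μM to 50 nM), then given 60 μM DiFMUP for 20 min at 37 °C. Phosphatase activity was read as fluorescence at 355-460 nm, three times in duplicate.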

HeLa cells = experiment: Indirect immunofluorescence: effect on HeLa cells (mitotic arrest, microtubule depolymerization); assay type: cell-based, human; parameters: key to Effect on Hela at 25 μM / Effect on Hela at 100 μM / Effect on Hela at 50 and 100 μM / Effect on Hela at 50 μM: —: −: no activity on the cells at 25 μM (if there is an effect at high concentrations, this is specified in the table).; *: weak activity (MA and/or slight depolymerization of the MTs and/or slight inhibition of proliferation),; **: average activity (MA and/or moderate depolymerization of the MTs and/or moderate inhibition of proliferation),; ***: strong activity (MA and/or pronounced depolymerization of the MTs and/or pronounced inhibition of proliferation),; ****: very strong activity (MA and/or very pronounced depolymerization of the MTs and/or strong inhibition of proliferation)
Summary of the method: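 HeLa cells exposed 24 h to compound (100 μM to 50 nM; primary series 1–10 μM), DMSO controls. PFA/glutaraldehyde-fixed cells immunostained for α-tubulin, actin (phalloidin) and DNA (Hoechst); fluorescence microscopy scored phenotypes and mitotic index, with mitotic index and/or MT depolymerization evaluated at 25 μM.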

T1 sequence (P62139 whole entry): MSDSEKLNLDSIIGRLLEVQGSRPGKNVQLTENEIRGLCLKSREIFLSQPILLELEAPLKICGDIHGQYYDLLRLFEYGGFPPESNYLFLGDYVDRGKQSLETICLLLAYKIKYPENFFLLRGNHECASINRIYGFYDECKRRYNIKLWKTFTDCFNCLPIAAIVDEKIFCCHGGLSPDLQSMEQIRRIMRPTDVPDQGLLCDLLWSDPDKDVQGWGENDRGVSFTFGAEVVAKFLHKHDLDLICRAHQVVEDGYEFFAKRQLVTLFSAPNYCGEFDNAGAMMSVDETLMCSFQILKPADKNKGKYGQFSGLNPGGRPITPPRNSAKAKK

## COc1ccc(-c2[nH]c(=O)c3cc(OC)ccc3c2[N+](=O)[O-])cc1 [Compound 6, 7-methoxy-3-(4-methoxyphenyl)-4-nitroisoquinoline-1(2H)-one]
HMEC cells
  GI50: ≤ 100 nM
PP1α (PP1CA)
  IC50: ≤ 9 µM
HeLa cells; 25 μM, 24 hours, mitotic index and/or depolymerization of the MTs
  Effect on Hela at 25 μM: ****
HeLa cells; 1 and 10 μM for 24 hours
  phenotype on microtubules and actin cytoskeleton, HeLa cells in interphase: depolymerization of the microtubules and a reorganization of the actin cytoskeleton
  phenotype on microtubules and actin cytoskeleton, HeLa cells in mitosis: depolymerization of the spindle microtubules and actin blebbing at the level of the cortex
